{
  "source": "patent US20220145260A1",
  "about": "“METHOD FOR CULTURING HEPATIC EPITHELIOID TISSUE HAVING A STRUCTURE OF CONNECTIONS BETWEEN HEPATOCYTES AND BILE DUCT EPITHELIAL CELL” (SAPPORO MEDICAL UNIVERSITY, priority 2019, published 2022)",
  "key": {"[1]": {"tested_on": "hepatic epithelioid tissue (small hepatocytes and bile duct epithelial cells)", "assay": "Uptake of bilirubin by the hepatic epithelioid tissue reconstructed ex vivo", "format": "cell-based, mice", "details": "10 μg/ml bilirubin, 3 to 5 days culture; tissue 2 weeks after overlaying Matrigel; Fouchet's reagent staining"}, "[2]": {"tested_on": "hepatic epithelioid tissue (small hepatocytes and bile duct epithelial cells)", "assay": "Transportation of bile acid analog CLF from hepatocytes to the bile duct", "format": "cell-based, mice", "details": "after 6 hours; 1 month after overlaying gel"}, "[3]": {"tested_on": "coculture of human CLiP and murine bile duct epithelial cells", "assay": "CLF transport in coculture of human reprogramming hepatocytes (hCLiP) and murine BEC", "format": "cell-based", "details": "one week after overlaying collagen gel containing 40% Matrigel", "description": "In order to produce an organoid reflecting the metabolic functions of humans, coculture of human reprogramming hepatocytes and murine bile duct epithelial cells was performed. Specifically, murine bile duct epithelial cells were cultured on a collagen gel (the amount of collagen contained in the collagen gel: 4 mg/ml) for 5 days, and then CLIP was inoculated. Two days later, human recombinant oncostatin M (hOSM) (manufactured by R&D Systems Inc.) was added, and then 1 day later, a collagen gel containing 40% EHSgel (Matrigel) was overlaid to perform coculture.\n(A) It can be seen that the contact surface between murine BEC (the range indicated in red) and human CLIP has been formed during the early stage of coculture (see FIG. 10A). (B) One week after overlaying a collagen gel containing EHSgel (Matrigel), CLF was added."}, "[4]": {"tested_on": "barrier functions of the epithelial cells in the organoid", "assay": "Release of CLF into the medium by inhibition of cell-cell adhesion (tight junction barrier) with MβCD", "format": "cell-based, mice"}, "[5]": {"tested_on": "hepatic epithelioid tissue (small hepatocytes and bile duct epithelial cells)", "assay": "Fluorescein diacetate uptake and flow into bile duct in hepatic epithelioid tissue", "format": "cell-based, mice", "details": "hepatic epithelioid tissue 2 weeks after overlaying Matrigel; fluorescence microscopy", "description": "After 4 mg/ml of a type I collagen solution was prepared, it was added to wells of a pre-cooled culture plate (manufactured by Greiner Bio-One Co., Ltd.), followed by allowing to stand at 37° C. for 30 to 60 minutes to be gelatinized. Bile duct epithelial cells suspended in a DMEM/F12 medium (manufactured by Sigma Aldrich Co. LLC) containing 10% serum (fetal bovine serum), 1×insulin-transferrin-selenium (ITS), 0.1 μM dexamethasone, 5 ng/ml epidermal growth factor (EGF), and 5 ng/ml hepatocyte growth factor (HGF) were inoculated in a 24-well plate at 5×10^4 cells/well. […] The density in the cultured region of the bile duct epithelial cells in the cultured region was measured with image analysis software (manufactured by Olympus Corporation) by using photographs taken under a microscope. […]\nFluorescein diacetate (FDA) (manufactured by Tokyo Chemical Industry Co., Ltd.) was taken up by the above-mentioned hepatic epithelioid tissue 2 weeks after overlaying Matrigel, and observation was performed with a phase-contrast microscope and a fluorescence microscope. […] FDA is taken by hepatocytes and hydrolyzed to become fluorescein that emits a fluorescence, and then is excreted into the bile canaliculus."}},
  "data": [
    {"compound": "C=CC1=C(C)/C(=C/c2[nH]c(Cc3[nH]c(/C=C4\\NC(=O)C(C)=C4C=C)c(C)c3CCC(=O)O)c(CCC(=O)O)c2C)NC1=O", "note": "[bilirubin]", "values": [
      {"measurement": "flow of bilirubin taken up by hepatocytes into bile duct structure", "setting": "[1]", "result": "flows into a bile duct structure formed by bile duct epithelial cells"}
    ]},
    {"compound": "cholyl lysine fluorescein [CLF]", "values": [
      {"measurement": "transport to the bile duct", "setting": "[2]", "result": "transported to the bile duct"},
      {"measurement": "transport of CLF taken up by human CLiP to murine bile duct tissue", "setting": "[3]", "result": "transported to a murine bile duct tissue"}
    ]},
    {"compound": "Methyl beta cyclodextrin [MβCD]", "values": [
      {"measurement": "concentration dependence of CLF release into the medium", "setting": "[4]; 25 mM or 75 mM MβCD", "result": "release depends on the concentration of MβCD"},
      {"measurement": "CLF fluorescence leaked into the medium after MβCD addition", "setting": "[4]; 25 mM or 75 mM MβCD vs no addition, cells 1 month after addition of EHS-gel", "result": "fluorescence was detected in the medium"}
    ]},
    {"compound": "CC(=O)Oc1ccc2c(c1)Oc1cc(OC(C)=O)ccc1C21OC(=O)c2ccccc21", "note": "[Fluorescein diacetate]", "values": [
      {"measurement": "flow of fluorescein (from FDA hydrolysed in hepatocytes) into the bile duct", "setting": "[5]", "result": "fluorescein has flowed into the bile duct"}
    ]}
  ]
}
